Tests used:
Assay in all cases: relative viability (nuclei count vs DMSO), 5 days (fraction); higher = more cells survive
[1] = compound: CC1(C)CCC(CN2CCN(c3ccc(C(=O)NS(=O)(=O)c4ccc(NCC5CCOCC5)c([N+](=O)[O-])c4)c(Oc4cnc5[nH]ccc5c4)c3)CC2)=C(c2ccc(Cl)cc2)C1 [Venetoclax] + CS(=O)(=O)CCNCc1ccc(-c2ccc3ncnc(Nc4ccc(OCc5cccc(F)c5)c(Cl)c4)c3c2)o1 [Lapatinib] (partner 2 µM)
Summary of the method: (§1)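 Lung cancer cell lines were seeded in 1536-well plates and dosed by pin tool the next day, with either a single drug or a fixed anchor-drug dose combined with five library-drug doses (not always all listed) spaced in √10 steps. Five days later, one step fixed the cells and stained their nuclei (final 0.05% Triton X-100, 1% formaldehyde, 1 ug/ml Hoechst), and nuclei were counted on 4× images. Relative viability is the nuclei count in treated wells divided by the count in vehicle wells, and each value is the median of duplicate plates.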

[2] = compound: CC1(C)CCC(CN2CCN(c3ccc(C(=O)NS(=O)(=O)c4ccc(NCC5CCOCC5)c([N+](=O)[O-])c4)c(Oc4cnc5[nH]ccc5c4)c3)CC2)=C(c2ccc(Cl)cc2)C1 [Venetoclax] + COc1cc2c(Oc3ccc(NC(=O)C4(C(=O)Nc5ccc(F)cc5)CC4)cc3F)ccnc2cc1OCCCN1CCOCC1 [Foretinib] (partner 0.25 µM)
Summary of the method: as §1

[3] = compound: CC1(C)CCC(CN2CCN(c3ccc(C(=O)NS(=O)(=O)c4ccc(NCC5CCOCC5)c([N+](=O)[O-])c4)c(Oc4cnc5[nH]ccc5c4)c3)CC2)=C(c2ccc(Cl)cc2)C1 [Venetoclax]
Summary of the method: (§2)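 Lung cancer cell lines were seeded into 1536-well plates, kept overnight at 37 °C and pinned with five library-drug doses (not always all listed) spaced by √10. After 5 days, nuclei were Hoechst-stained, imaged at 4× and counted with MetaXpress. Viability is treated-well nuclei over vehicle-well nuclei, taken as a median across plates. Plates needed control CV below 25% and at least one doubling.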

[4] = compound: Cn1cnc2c(F)c(Nc3ccc(Br)cc3Cl)c(C(=O)NOCCO)cc21 [Selumetinib]
Summary of the method: as §2

Cell Line: UMC-11
- relative viability ([1]; first compound 0.01 µM): 0.828
- relative viability ([1]; first compound 0.03162 µM): 0.942
- relative viability ([1]; first compound 0.1 µM): 0.712
- relative viability ([1]; first compound 0.3162 µM): 0.928
- relative viability ([1]; first compound 1 µM): 0.912
- relative viability ([2]; first compound 0.01 µM): 1.08
- relative viability ([2]; first compound 0.03162 µM): 1.05
- relative viability ([2]; first compound 0.1 µM): 1.01
- relative viability ([2]; first compound 0.3162 µM): 0.961
- relative viability ([2]; first compound 1 µM): 0.913
- relative viability ([3]; 0.01 µM): 0.958
- relative viability ([3]; 0.03162 µM): 1
- relative viability ([3]; 0.1 µM): 0.901
- relative viability ([3]; 0.3162 µM): 0.944
- relative viability ([3]; 1 µM): 0.927
- relative viability ([4]; 0.02 µM): 0.936
- relative viability ([4]; 0.06325 µM): 0.909
- relative viability ([4]; 0.2 µM): 1.01
- relative viability ([4]; 0.6325 µM): 1.04

From the supplement of paper PMC10307832
